From patent US20260226006A1, “INDOLE COMPOUND, PREPARATION METHOD THEREFOR AND USE THEREOF” (SUZHOU MERNA THERAPEUTICS CO. LTD, priority 2023, published 2026)

Experiments:
THP-1 cells = experiment: m6A methylation level of THP-1 cells by LC-MS (Example 19); assay type: cell-based; conditions: 24 hours
Protocol: 1*10^8 THP-1 cells were seeded in culture dishes, into which 400 nM compound 1, 4 nM and 400 nM compounds 2b, 5a, and 8b, 4 nM and 4 μM nicotinamide, and 5 μM m6A methylase inhibitor UZH2 were added, respectively. The cells were cultured in an incubator containing 5% CO2 at 37° C. for 24 hours. After culture media were discarded, the cells were washed with PBS and centrifuged to discard the supernatant. 400 μL of an RLT cell lysis buffer was added, and the cells were stored at −80° C. A portion of samples were selected, into which 400 μL of 70% ethanol was added and evenly stirred. 700 μL of a sample was transferred to an RNeasy centrifugation column and centrifuged for 15 seconds (8,000 g, 25° C.). Then, 700 μL of an RW1 buffer solution was added and centrifuged for 15 seconds (8,000 g, 25° C.), followed by the addition of 500 μL of an RPE buffer solution and centrifugation for 16 seconds (8,000 g, 25° C.). The above steps were repeated twice, followed by centrifugation for 2 minutes to completely remove the eluent. 30 μL of nuclease-free water was added to a chromatographic column, and the cells were incubated for 5 minutes and then centrifuged for 2 minutes (12,000 g, 25° C.). The steps were repeated 3 times. 2 μL of an RNA sample was selected and dissolved in 98 μL of a 10 mM Tris buffer solution, and the absorbance at 260 nm was measured using a Nanodrop to determine the RNA concentration.
50 μg of total RNA was selected and dissolved in 100 μL of nuclease-free water. Oligo (dT) magnetic beads were resuspended, 50 μL of the magnetic beads were transferred to a 1.5 mL test tube, 500 μL of a binding buffer solution was added, the mixture was allowed to stand, and the supernatant was removed. 100 μL of an RNA sample was added to 200 μL of a magnetic bead suspension for mixing, the mixture was stirred and incubated in a Thermomixer at 25° C. for 5 minutes, the supernatant was discarded, and then 200 μL of a washing buffer solution was added. The steps were repeated 2 times, and then centrifugation was performed for 10 seconds (2,000 g, 25° C.). 50 μL of an elution buffer solution was added and evenly mixed, the mixture was heated to 75° C., the supernatant was transferred to a new 1.5 mL test tube and purified using an RNA Clean & Concentrator kit, and the RNA concentration was determined.
20 μL (approximately 200 ng) of an mRNA sample and 20 μL of a Nuclease P1 digestion premix (including 0.5 μL of 2 unit/μL Nuclease P1, 0.4 μL of 5 M NaCl, 2 μL of 0.1 M ZnCl2, and 17.1 μL of PCR-grade water) were added into each test tube, and the mixture was stirred and incubated in a Thermomixer at 37° C. for 2 hours. 2 μL of a 2 M NH4HCO3 solution and 1 unit of alkaline phosphatase were added, and the mixture was stirred and incubated in a Thermomixer at 37° C. for 2 hours. 1 μL of a 1.2 M HCl neutralization solution was added, and centrifugation was performed for 30 minutes (16,000 g, 4° C.). 20 μL of the supernatant was collected, an m6A methylation fragment was analyzed by LC-MS, and the m6A inhibition rate was calculated.
m6A inhibition rate (%)=(measured ion peak area−blank control)/(positive ion peak area−blank control)*100.

[1] = tested on: skin of hind limb toes of mice; experiment: Kinase inhibitor-induced mouse models with hand-foot skin reaction (Example 24); assay type: in vivo, ICR mice; conditions: for expression level of cytokine IL-1β in skin tissues of hind limb toes / thickening of the epidermal layer and the stratum corneum in the skin tissues (pathological staining) / swelling of the toes caused by the modeling drugs: compound 2b 3% ointment topical or nicotinamide 100 mg/kg oral; for thickening of the epidermal layer and the stratum corneum in the skin tissues (pathological staining) / swelling of the toes caused by the modeling drugs: sorafenib or osimertinib model; for swelling of the toes caused by the modeling drugs: once daily 16 days; for degree of swelling of hind limb toes / epidermal layer and stratum corneum in skin tissues of hind limb toes (pathological staining): modeling drug oral for 14 days; for skin appearance of hind limb toes: modeling for 14 days, sorafenib 100 mg/kg or osimertinib 10 mg/kg oral
Source text: After adaptive feeding for 7 days, SPF-grade ICR mice (male, 5-6 weeks old, with a body weight of approximately 35 g) were randomly divided into groups, including a blank control group (6 mice), a sorafenib modeling group (6 mice), an osimertinib modeling group (6 mice), a sorafenib+compound 2b group (6 mice), an osimertinib+compound 2b group (6 mice), a sorafenib+nicotinamide group (6 mice), and an osimertinib+nicotinamide group (6 mice). The groups were respectively administered corresponding modeling drugs by oral gavage (sorafenib at 100 mg/kg and osimertinib at 10 mg/kg) once daily, and the blank control group was administered an equivalent volume of normal saline. After administration with the chemotherapeutic drugs for 2 weeks, the compound ointments (at a compound content of 3%) used in Example 22 were respectively applied topically in the groups or nicotinamide was orally administered (100 mg/kg) once daily continuously for 16 days.
Measurement of the degree of swelling of toes: The degree of swelling of hind limb toes of the mice was measured using a toe swelling tester (KW-7C, Nanjing Calvin Biotechnology Co., Ltd.) before administration with the modeling drugs, after administration with the modeling drugs for 2 weeks, and before sacrifice, respectively. Before measurement, ankle joints of hind paws of the mice were marked at same positions before administration, after administration for 2 weeks, and before sacrifice. During measurement, water was properly located at the same level as the marked positions, and numerical values were recorded after becoming stable.
Pathological staining of skin tissues: Skin tissue samples were selected from hind limb toes of the mice and placed in 4% paraformaldehyde for fixation at room temperature for 4 hours. Then, the tissues were taken out and rinsed with running water for several hours. The samples were subjected to dehydration treatment with 70%, 80%, and 90% ethanol solutions, followed by treatment with a mixed solution of equal amounts of absolute alcohol and xylene for 15 minutes, and then permeabilized twice with a xylene solution for 15 minutes each time until the samples became transparent. The samples were placed in a mixture of half xylene and half paraffin for soaking for 15 minutes, and then, paraffin I and paraffin II were added for wax penetration for one hour, respectively. After embedding with paraffin, the samples were sectioned, baked, dewaxed, and hydrated. Then, the hydrated sections were placed in a hematoxylin solution (ZSGB-BIO, article No. 23041001) for staining for 3 minutes, and a differentiation solution of hydrochloric acid in ethanol was added for differentiation for 15 seconds. After rinsing with water, a Scott bluing solution (Servicebio, article No. 20230801) was added for bluing for 15 seconds. After rinsing with running water, the sections were stained with an eosin solution (Solarbio, article No. 33535) for 3 minutes, rinsed with running water, dehydrated, permeabilized, sealed, and inspected under a microscope.
Immunohistochemical staining: After baking, dewaxing, and hydration, paraffin sections of skin tissues of hind limb toes of the mice were subjected to antigen retrieval using a 0.2 M citric acid buffer solution (containing 1.534 g of citric acid, 3.1 g of sodium citrate, and 100 mL of distilled water, pH 4.7). Endogenous […] was removed using 3% hydrogen peroxide (Shandong Annjet High-Tech Disinfection Technology Co., Ltd., article No. 20290902), and the sections were incubated at room temperature for 10 minutes and then fully rinsed with a PBS buffer solution (containing 8 g of NaCl, 0.2 g of KCl, 1.44 g of Na2HPO4, and 1 M HCl, pH 7.4). The sections were permeabilized with 0.5% Triron-X-100 (AmyJet Scientific, article No. A-CSH436-100 mL), respectively permeabilized with mouse anti-IL-1β and rabbit IL-8 for 10 minutes, and not permeabilized with rabbit anti-IL-6. […]

Row | Compound | m6A methylation level of mRNA of the cells (THP-1 cells; 4 nM and 400 nM) | expression level of cytokine IL-1β in skin tissues of hind limb toes ([1]; osimertinib model) | expression level of cytokine IL-1β in skin tissues of hind limb toes ([1]; sorafenib model) | thickening of the epidermal layer and the stratum corneum in the skin tissues (pathological staining) [1] | swelling of the toes caused by the modeling drugs [1] | degree of swelling of hind limb toes [1] | epidermal layer and stratum corneum in skin tissues of hind limb toes (pathological staining) [1] | skin appearance of hind limb toes [1] | other results
1 | NC(=O)[C@H]1CCCc2c1[nH]c1ccc(Cl)cc21 [Compound 2b, (S)-6-chloro-2,3,4,9-tetrahydro-1H-carbazole-1-carboxamide] | significantly inhibit | significantly decrease | significantly decrease | effectively alleviate | effectively alleviate |  |  |  | m6A inhibition activity (THP-1 cells; 400 nM): comparable to that of the m6A methylase inhibitor UZH2 at a concentration of 5 μM
2 | NC(=O)C1c2[nH]c3ccc(Cl)cc3c2C2CCC1C2 [Compound 5a, (S)-2-chloro-5,6,7,8,9,10-hexahydro-7,10-methanocyclohepta[b]indole-6-carboxamide] | significantly inhibit |  |  |  |  |  |  |  | 
3 | CN1CC[C@H](C(N)=O)c2[nH]c3ccc(Cl)cc3c21 [Compound 8b, (S)-8-chloro-1-methyl-2,3,4,5-tetrahydropyrido[3,2-b]indole-4-carboxamide] | significantly inhibit |  |  |  |  |  |  |  | 
4 | NC(=O)c1cccnc1 [Nicotinamide, nicotinamide] |  | does not have a significant impact | does not have a significant impact | does not significantly alleviate | not observed that oral administration of the nicotinamide at 100 mg/kg significantly alleviates the swelling |  |  |  | m6A methylation level of mRNA of the cells (THP-1 cells; 4 nM and 4 μM): no inhibitory effect
5 | C=CC(=O)Nc1cc(Nc2nccc(-c3cn(C)c4ccccc34)n2)c(OC)cc1N(C)CCN(C)C [Osimertinib, osimertinib, reference compound] |  |  |  |  |  | significant swelling | significantly thickened | obvious erythema and rhagades | cytokine IL-1β in skin tissues of hind limb toes (immunohistochemistry) ([1]; osimertinib oral for 14 days): significantly increased
6 | CNC(=O)c1cc(Oc2ccc(NC(=O)Nc3ccc(Cl)c(C(F)(F)F)c3)cc2)ccn1 [Sorafenib, sorafenib, reference compound] |  |  |  |  |  | significant swelling | significantly thickened | obvious erythema and rhagades | cytokine IL-1β in skin tissues of hind limb toes (immunohistochemistry) ([1]; sorafenib oral for 14 days): significantly increased
